Reference: patent publication US4500533A, “2,4,5-Triaryl pyrimidines and a method of treating pain, fever, thrombosis, inflammation and arthritis” (Eli Lilly and Company, priority 1983, dated 1985)

Key:
[1] = system: adjuvant-induced arthritis; test: Established adjuvant-induced arthritis test in rats (uninjected hind paw swelling); type: in vivo, male Lewis-Wistar rats; conditions: AUC of mean uninjected paw volumes
Mouse Writhing = test: mouse writhing assay (analgesic activity); type: in vivo, Cox standard strain albino male mice; conditions: po, p.o. by gavage in corn oil-acacia emulsion (5%), three hours before i.p. acetic acid (0.60 percent), 10 minute observation starting five minutes after acetic acid, read-out: Mouse Writhing ED50 (dose required to inhibit induced writhing by fifty percent)
From the text: The analgesic activity of a number of compounds provided by this invention has been determined in the standard mouse writhing assay. Writhing, which is characterized by contraction of the abdominal musculature, extension of the hindlegs, and rotation of the trunk, was induced in Cox standard strain albino male mice. The mice, weighing 18-24 grams, were fasted overnight and given the test compound by gavage in a corn oil-acacia emulsion (5%) three hours before writhing was induced by the intraperitoneal administration of acetic acid (0.60 percent). Each treatment group consisted of five mice. The total number of writhes for the treatment group was determined during a 10 minute observation starting five minutes after acetic acid administration. […] Table I which follows presents typical test results obtained with certain of the compounds of this invention. The results in the mouse writhing assay are presented as the effective oral (p.o.) dose in mg./kg. of the tested compound required to inhibit induced writhing in the test animals by fifty percent (ED50).

SMILES	% Inhibition of Uninjected Paw Volume Inflammation, Days 14 through 30 ([1]; 10 mg./kg. p.o. × 15, daily days 15-29, corn oil-acacia emulsion) [%]	ED50 (Mouse Writhing) [mg/kg]	% Inhibition of Uninjected Paw Volume Inflammation, Days 14 through 30 ([1]; 25 mg./kg. p.o. × 15, daily days 15-29, corn oil-acacia emulsion) [%]
COc1ccc(-c2cnc(-c3ccc(F)cc3)nc2-c2ccc(OC)cc2)cc1 [Example 2, 2-(4-Fluorophenyl)-4,5-bis(4-methoxyphenyl)pyrimidine]	70	1.48	–
COc1ccc(-c2cnc(-c3ccc(Cl)cc3)nc2-c2ccc(OC)cc2)cc1 [Example 1, 2-(4-Chlorophenyl)-4,5-bis(4-methoxyphenyl)pyrimidine]	–	0.99	74
